{
  "source": "patent US11820766B2",
  "about": "“Monoacylglycerol lipase modulators” (Janssen Pharmaceutica NV, priority 2018, dated 2023)",
  "data": [
    {"biological_target": "T1, human MGL from HeLa cells (Homo sapiens, UniProt Q99685)", "T1 construct": "combining endogenously expressed MGL from HeLa cells with test compounds; endogenous in cells; host or cells: HeLa cells / cell homogenates", "T1 sequence (Q99685 1-303)": "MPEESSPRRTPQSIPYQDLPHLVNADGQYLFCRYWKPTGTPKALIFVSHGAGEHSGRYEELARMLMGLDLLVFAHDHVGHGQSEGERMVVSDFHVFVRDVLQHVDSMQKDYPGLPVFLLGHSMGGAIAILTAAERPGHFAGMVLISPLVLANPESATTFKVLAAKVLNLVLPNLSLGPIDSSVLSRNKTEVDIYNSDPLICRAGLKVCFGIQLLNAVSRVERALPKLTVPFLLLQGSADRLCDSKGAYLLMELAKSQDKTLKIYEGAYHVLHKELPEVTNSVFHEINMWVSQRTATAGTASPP", "test": "In vitro MGL activity assay: [glycerol-1,3-3H]-oleyl glycerol cleavage by MGL from HeLa cells", "format": "biochemical", "conditions": "300 nM [Glycerol-1,3-3H]-oleyl glycerol, one hour incubation", "excerpt": "MGL is the predominant hydrolase in HeLa cells/cell homogenates.", "units": {"IC50": "nM"}, "values": [
      {"smiles": "C[C@H]1c2nn(C)c(-c3cc(F)c(F)c(F)c3)c2CCN1C(=O)c1cc(F)cc(-n2nccn2)c1", "note": "[Example 284, [(7S)-2,7-Dimethyl-3-(3,4,5-trifluorophenyl)-5,7-dihydro-4H-pyrazolo[3,4-c]pyridin-6-yl]-[3-fluoro-5-(triazol-2-yl)phenyl]methanone]", "IC50": 15.6},
      {"smiles": "C[C@H]1c2nn(C)c(-c3cc(F)c(F)c(F)c3)c2CCN1C(=O)c1cc(-n2nccn2)ccc1F", "note": "[Example 285, [(7S)-2,7-Dimethyl-3-(3,4,5-trifluorophenyl)-5,7-dihydro-4H-pyrazolo[3,4-c]pyridin-6-yl]-[2-fluoro-5-(triazol-2-yl)phenyl]methanone]", "IC50": 18.6},
      {"smiles": "Cc1cc(C(=O)N2CCc3c(nn(C)c3-c3cc(F)c(F)c(F)c3)[C@@H]2C)cc(-n2nccn2)c1", "note": "[Example 286, [(7S)-2,7-Dimethyl-3-(3,4,5-trifluorophenyl)-5,7-dihydro-4H-pyrazolo[3,4-c]pyridin-6-yl]-[3-methyl-5-(triazol-2-yl)phenyl]methanone]", "IC50": 2.27},
      {"smiles": "C[C@H]1c2nn(C)c(-c3cc(F)c(F)c(F)c3)c2CCN1C(=O)c1cc(-n2nccn2)cc(C(F)(F)F)c1", "note": "[Example 287, [(7S)-2,7-Dimethyl-3-(3,4,5-trifluorophenyl)-5,7-dihydro-4H-pyrazolo[3,4-c]pyridin-6-yl]-[3-(triazol-2-yl)-5-(trifluoromethyl)phenyl]methanone]", "IC50": 60.4},
      {"smiles": "C[C@H]1c2nn(C)c(-c3cc(F)c(F)c(F)c3)c2CCN1C(=O)c1c(F)cccc1-n1nccn1", "note": "[Example 288, [(7S)-2,7-Dimethyl-3-(3,4,5-trifluorophenyl)-5,7-dihydro-4H-pyrazolo[3,4-c]pyridin-6-yl]-[2-fluoro-6-(triazol-2-yl)phenyl]methanone]", "IC50": 59.8},
      {"smiles": "COc1ccc(-n2nccn2)c(C(=O)N2CCc3c(nn(C)c3-c3cc(F)c(F)c(F)c3)[C@@H]2C)c1", "note": "[Example 289, [(7S)-2,7-Dimethyl-3-(3,4,5-trifluorophenyl)-5,7-dihydro-4H-pyrazolo[3,4-c]pyridin-6-yl]-[5-methoxy-2-(triazol-2-yl)phenyl]methanone]", "IC50": 19.8},
      {"smiles": "C[C@H]1c2nn(C)c(-c3cc(F)c(F)c(F)c3)c2CCN1C(=O)c1cccc(-n2cnnc2)c1", "note": "[Example 290, [(7S)-2,7-Dimethyl-3-(3,4,5-trifluorophenyl)-5,7-dihydro-4H-pyrazolo[3,4-c]pyridin-6-yl]-[3-(1,2,4-triazol-4-yl)phenyl]methanone]", "IC50": 71.8},
      {"smiles": "C[C@H]1c2nn(C)c(-c3cc(F)c(F)c(F)c3)c2CCN1C(=O)c1ccc(F)c(-n2cnnc2)c1", "note": "[Example 291, [(7S)-2,7-Dimethyl-3-(3,4,5-trifluorophenyl)-5,7-dihydro-4H-pyrazolo[3,4-c]pyridin-6-yl]-[4-fluoro-3-(1,2,4-triazol-4-yl)phenyl]methanone]", "IC50": 1400},
      {"smiles": "C[C@H]1c2nn(C)c(-c3cc(F)c(F)c(F)c3)c2CCN1C(=O)c1cc(F)cc(-n2cnnc2)c1", "note": "[Example 292, [(7S)-2,7-Dimethyl-3-(3,4,5-trifluorophenyl)-5,7-dihydro-4H-pyrazolo[3,4-c]pyridin-6-yl]-[3-fluoro-5-(1,2,4-triazol-4-yl)phenyl]methanone]", "IC50": 245},
      {"smiles": "Cc1cc(C(=O)N2CCc3c(nn(C)c3-c3cc(F)c(F)c(F)c3)[C@@H]2C)cc(-n2cnnc2)c1", "note": "[Example 293, [(7S)-2,7-Dimethyl-3-(3,4,5-trifluorophenyl)-5,7-dihydro-4H-pyrazolo[3,4-c]pyridin-6-yl]-[3-methyl-5-(1,2,4-triazol-4-yl)phenyl]methanone]", "IC50": 63},
      {"smiles": "Cc1ccc(C(=O)N2CCc3c(nn(C)c3-c3cc(F)c(F)c(F)c3)[C@@H]2C)cc1-n1cnnc1", "note": "[Example 294, [(7S)-2,7-Dimethyl-3-(3,4,5-trifluorophenyl)-5,7-dihydro-4H-pyrazolo[3,4-c]pyridin-6-yl]-[4-methyl-3-(1,2,4-triazol-4-yl)phenyl]methanone]", "IC50": 1660},
      {"smiles": "C[C@H]1c2nn(C)c(-c3cc(F)c(F)c(F)c3)c2CCN1C(=O)c1cc(-n2cnnc2)cc(C(F)(F)F)c1", "note": "[Example 296, [(7S)-2,7-Dimethyl-3-(3,4,5-trifluorophenyl)-5,7-dihydro-4H-pyrazolo[3,4-c]pyridin-6-yl]-[3-(1,2,4-triazol-4-yl)-5-(trifluoromethyl)phenyl]methanone]", "IC50": 608},
      {"smiles": "COc1ccc(C(=O)N2CCc3c(nn(C)c3-c3cc(F)c(F)c(F)c3)[C@@H]2C)cc1-n1cnnc1", "note": "[Example 297, [(7S)-2,7-Dimethyl-3-(3,4,5-trifluorophenyl)-5,7-dihydro-4H-pyrazolo[3,4-c]pyridin-6-yl]-[4-methoxy-3-(1,2,4-triazol-4-yl)phenyl]methanone]", "IC50": 923},
      {"smiles": "COc1cc(C(=O)N2CCc3c(nn(C)c3-c3cc(F)c(F)c(F)c3)[C@@H]2C)cc(-n2cnnc2)c1", "note": "[Example 298, [(7S)-2,7-Dimethyl-3-(3,4,5-trifluorophenyl)-5,7-dihydro-4H-pyrazolo[3,4-c]pyridin-6-yl]-[3-methoxy-5-(1,2,4-triazol-4-yl)phenyl]methanone]", "IC50": 18.7},
      {"smiles": "COc1ccc(C(=O)N2CCc3c(nn(C)c3-c3cc(F)c(F)c(F)c3)[C@@H]2C)cn1", "note": "[Example 300, [(7S)-2,7-Dimethyl-3-(3,4,5-trifluorophenyl)-5,7-dihydro-4H-pyrazolo[3,4-c]pyridin-6-yl]-(6-methoxy-3-pyridyl)methanone]", "IC50": 263},
      {"smiles": "COc1ccc(C(=O)N2CCc3c(nn(C)c3-c3cc(F)c(F)c(F)c3)[C@@H]2C)nc1", "note": "[Example 301, [(7S)-2,7-Dimethyl-3-(3,4,5-trifluorophenyl)-5,7-dihydro-4H-pyrazolo[3,4-c]pyridin-6-yl]-(5-methoxy-2-pyridyl)methanone]", "IC50": 248},
      {"smiles": "COc1ccc(C)c(C(=O)N2CCc3c(nn(C)c3-c3cc(F)c(F)c(F)c3)[C@@H]2C)n1", "note": "[Example 302, [(7S)-2,7-Dimethyl-3-(3,4,5-trifluorophenyl)-5,7-dihydro-4H-pyrazolo[3,4-c]pyridin-6-yl]-(6-methoxy-3-methyl-2-pyridyl)methanone]", "IC50": 312},
      {"smiles": "COc1cccnc1C(=O)N1CCc2c(nn(C)c2-c2cc(F)c(F)c(F)c2)[C@@H]1C", "note": "[Example 303, [(7S)-2,7-Dimethyl-3-(3,4,5-trifluorophenyl)-5,7-dihydro-4H-pyrazolo[3,4-c]pyridin-6-yl]-(3-methoxy-2-pyridyl)methanone]", "IC50": 113},
      {"smiles": "COCc1cncc(C(=O)N2CCc3c(nn(C)c3-c3cc(F)c(F)c(F)c3)[C@@H]2C)c1", "note": "[Example 304, [(7S)-2,7-Dimethyl-3-(3,4,5-trifluorophenyl)-5,7-dihydro-4H-pyrazolo[3,4-c]pyridin-6-yl]-[5-(methoxymethyl)-3-pyridyl]methanone]", "IC50": 578},
      {"smiles": "CC(C)Oc1cncc(C(=O)N2CCc3c(nn(C)c3-c3cc(F)c(F)c(F)c3)[C@@H]2C)c1", "note": "[Example 305, [(7S)-2,7-Dimethyl-3-(3,4,5-trifluorophenyl)-5,7-dihydro-4H-pyrazolo[3,4-c]pyridin-6-yl]-(5-isopropoxy-3-pyridyl)methanone]", "IC50": 229},
      {"smiles": "COc1ccc(C(=O)N2CCc3c(nn(C)c3-c3cc(F)c(F)c(F)c3)[C@@H]2C)c(C)n1", "note": "[Example 306, [(7S)-2,7-Dimethyl-3-(3,4,5-trifluorophenyl)-5,7-dihydro-4H-pyrazolo[3,4-c]pyridin-6-yl]-(6-methoxy-2-methyl-3-pyridyl)methanone]", "IC50": 189},
      {"smiles": "COc1ccnc(C(=O)N2CCc3c(nn(C)c3-c3cc(F)c(F)c(F)c3)[C@@H]2C)c1C", "note": "[Example 307, [(7S)-2,7-Dimethyl-3-(3,4,5-trifluorophenyl)-5,7-dihydro-4H-pyrazolo[3,4-c]pyridin-6-yl]-(4-methoxy-3-methyl-2-pyridyl)methanone]", "IC50": 181},
      {"smiles": "COc1cnc(C)c(C(=O)N2CCc3c(nn(C)c3-c3cc(F)c(F)c(F)c3)[C@@H]2C)c1", "note": "[Example 308, [(7S)-2,7-Dimethyl-3-(3,4,5-trifluorophenyl)-5,7-dihydro-4H-pyrazolo[3,4-c]pyridin-6-yl]-(5-methoxy-2-methyl-3-pyridyl)methanone]", "IC50": 115},
      {"smiles": "COc1ccnc(C(=O)N2CCc3c(nn(C)c3-c3cc(F)c(F)c(F)c3)[C@@H]2C)c1", "note": "[Example 309, [(7S)-2,7-Dimethyl-3-(3,4,5-trifluorophenyl)-5,7-dihydro-4H-pyrazolo[3,4-c]pyridin-6-yl]-(4-methoxy-2-pyridyl)methanone]", "IC50": 219},
      {"smiles": "COc1cc(C(=O)N2CCc3c(nn(C)c3-c3cc(F)c(F)c(F)c3)[C@@H]2C)cnc1C", "note": "[Example 310, [(7S)-2,7-Dimethyl-3-(3,4,5-trifluorophenyl)-5,7-dihydro-4H-pyrazolo[3,4-c]pyridin-6-yl]-(5-methoxy-6-methyl-3-pyridyl)methanone]", "IC50": 96.3},
      {"smiles": "COc1cnccc1C(=O)N1CCc2c(nn(C)c2-c2cc(F)c(F)c(F)c2)[C@@H]1C", "note": "[Example 311, [(7S)-2,7-Dimethyl-3-(3,4,5-trifluorophenyl)-5,7-dihydro-4H-pyrazolo[3,4-c]pyridin-6-yl]-(3-methoxy-4-pyridyl)methanone]", "IC50": 87.1},
      {"smiles": "COc1cc(C(=O)N2CCc3c(nn(C)c3-c3cc(F)c(F)c(F)c3)[C@@H]2C)ccn1", "note": "[Example 312, [(7S)-2,7-Dimethyl-3-(3,4,5-trifluorophenyl)-5,7-dihydro-4H-pyrazolo[3,4-c]pyridin-6-yl]-(2-methoxy-4-pyridyl)methanone]", "IC50": 81.7},
      {"smiles": "COc1cncc(C(=O)N2CCc3c(nn(C)c3-c3cc(F)c(F)c(F)c3)[C@@H]2C)c1C", "note": "[Example 313, [(7S)-2,7-Dimethyl-3-(3,4,5-trifluorophenyl)-5,7-dihydro-4H-pyrazolo[3,4-c]pyridin-6-yl]-(5-methoxy-4-methyl-3-pyridyl)methanone]", "IC50": 38}
    ]}
  ]
}
